System: Survivin gene
Experiment: Real-time PCR, Survivin gene expression
Format: cell-based, human
Details: relative to untreated control (1)
Protocol: The expression level of the following six genes (Ki-67, Survivin, Interleukin-1 beta (IL-1B), Interleukin-6 (IL-6), Cyclooxygenase-2 (COX-2) and protein kinase B (AKT1)) was determined in MCF7 and HEP2 treated with the IC50 of compound 5c. The untreated cells were used as a negative control for comparison purposes. […] Ki-67 is a popular proliferation marker for human tumor cells. […] Survivin is an inhibitor of apoptotic protein (IAP) family member, which is essential for cell division. The lowering of the expression of survivin inhibited tumor development, triggered apoptosis, and made tumor cells more susceptible to radiation and chemotherapy (Albadari and Li [2023]). […] IL-1B is a pleiotropic mediator of inflammation, which is produced in response to a variety of stressors (Aarreberg et al. [2019]). […] IL-6 is a pro-inflammatory cytokine that plays a significant role in the proliferation and differentiation of human cells. It promotes the production of numerous proteins involved in acute inflammation (Uciechowski and Dempke [2020]). […]
The expression level of the following six genes (Ki-67, survivin, AKT1, IL-6, COX2, and IL-1B) was examined using real-time polymerase chain reaction (qPCR) (Mohamed et al. [2023a]). […] The cycle threshold (Ct) was determined automatically. […]

Q: Which results are given for `COc1ccc(NC(=O)COc2ccc(C=CC(=O)c3cccs3)cc2)cc1` [Compound 5c, N-(4-Methoxyphenyl)-2-(4-(3-oxo-3-(thiophen-2-yl)prop-1-en-1-yl)phenoxy)acetamide]?
A: Survivin expression folding (HEP2 cells treated with IC50 of 5c): 0.489±0.07 fold; Survivin expression folding (MCF7 cells treated with IC50 of 5c): 0.632±0.0618 fold

— PMC11582173, “Synthesis, cytotoxicity, anti-inflammatory, anti-metastatic and anti-oxidant activities of novel chalcones incorporating 2-phenoxy-N-arylacetamide and thiophene moieties: induction of apoptosis in MCF7 and HEP2 cells” (Naunyn-Schmiedeberg's Archives of Pharmacology, 2024)
